# Test results taken from patent US20080293683A1, “Hormone Replacement Therapy” (University of Kansas Medical Center, priority 2007, published 2008).
# “And” between values parts separate entries of the source, which are not always exact repeats. Equal entries are not always repeated. Where two headings read alike, the source gives them in different places.
# Assays:
# [1] = biological target: T1, recombinant human ERα (Homo sapiens, UniProt P03372); experiment: ERα binding assay: competition of [3H]E2 binding by competing estrogens; conditions: for RBAα % (relative binding affinity for ERα, of E2): calculated against E2 = 100; for RBAα/RBAβ: ratio of relative binding affinities ERα over ERβ; for IC50: read-out: ERα IC50; for binding affinity for ERα (in words): concentrations up to 1000 nM; for RBAα/RBAβ determined by extrapolating the curves: extrapolated from curves of FIGS. 3-7, IC50 not reached
# T1 construct: purchased PanVera Corporation (Madison, Wis.); host or cells: baculovirus-mediated expression system
# T1 sequence (P03372 1-595): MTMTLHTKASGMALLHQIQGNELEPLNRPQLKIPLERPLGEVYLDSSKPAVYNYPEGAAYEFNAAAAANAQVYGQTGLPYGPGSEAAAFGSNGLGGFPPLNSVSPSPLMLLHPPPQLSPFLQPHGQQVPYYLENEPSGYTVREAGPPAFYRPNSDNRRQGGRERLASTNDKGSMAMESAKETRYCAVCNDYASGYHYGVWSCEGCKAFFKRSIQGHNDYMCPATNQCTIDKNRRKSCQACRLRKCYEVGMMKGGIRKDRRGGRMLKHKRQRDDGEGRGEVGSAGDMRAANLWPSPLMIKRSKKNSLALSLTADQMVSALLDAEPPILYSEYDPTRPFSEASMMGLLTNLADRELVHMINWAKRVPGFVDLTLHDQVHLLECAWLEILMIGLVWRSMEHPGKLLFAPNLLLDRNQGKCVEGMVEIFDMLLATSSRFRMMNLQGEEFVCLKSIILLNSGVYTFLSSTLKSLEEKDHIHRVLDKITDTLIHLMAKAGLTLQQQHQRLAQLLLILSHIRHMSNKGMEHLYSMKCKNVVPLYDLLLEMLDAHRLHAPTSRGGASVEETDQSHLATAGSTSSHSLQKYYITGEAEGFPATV
# Text: (§1) The recombinant human ERα and ERβ proteins and bovine serum albumin (BSA) were obtained from PanVera Corporation (Madison, Wis.). According to the supplier, the recombinant human ERα and ERβ were produced in a baculovirus-mediated expression system, and they were soluble and functionally active, with post-translational modifications similar to those found in mammalian cells. See Reid et al., Human estrogen receptor-α: Regulation by synthesis, modification and degradation, Cell. Mol. Life.
# (§2) The following buffer solutions were used in the ER binding assays, and they were prepared beforehand and stored at 4° C. The binding buffer consisted of 10% glycerol, 2 mM dithiothreitol, 1 mg/mL BSA and 10 mM Tris-HCl at pH 7.5. The ERα washing buffer contained 40 mM Tris-HCl and 100 mM KCl (pH 7.4), but the ERG washing buffer contained only 40 mM Tris-HCl (adjusted to pH 7.4). The 50% hydroxylapatite slurry was prepared first by vigorously mixing 10 g hydroxylapatite with 60 mL of the Tris-HCl solution (50 mM, pH 7.4). Hydroxylapatite was then allowed to settle for 20 minutes at room temperature, and the supernatant was decanted. The above procedures were repeated 10 times, and afterwards hydroxylapatite was kept in the 50 mM Tris-HCl solution overnight at 4° C. Hydroxylapatite slurry was then adjusted to an approximate final concentration of 50% (v/v) using the same Tris-HCl solution and stored at 4° C., and the slurry was stable for up to several months.
# (§3) Note that all of the estrogens were initially dissolved in pure ethanol to a stock concentration of 1 mM, and then further diluted to 100 μM with 20% aqueous ethanol. […] Immediately before the addition of the ERα or ERβ protein, it was diluted in the binding buffer and mixed gently with repetitive pipettings. […] The incubation mixture was then mixed gently and thoroughly with repetitive pipettings. […] The binding mixture was incubated at room temperature for two hours. At the end of the incubation, 100 μL of the hydroxylapatite slurry was added to each tube and the tubes were incubated on ice for 15 minutes with 3 times of brief vortexing. An aliquot (1 mL) of the appropriate washing buffer was added, mixed, and centrifuged at 10,000 g for five minutes, and the supernatants were discarded. This wash step was repeated twice. Hydroxylapatite pellets were then resuspended in 200 μL ethanol (followed by another rinse with 200 μL ethanol), and then the content was transferred to scintillation vials (containing 4 mL of the scintillation fluid) for measurement of ^3H-radioactivity with a liquid scintillation counter (Packard Tri-CARB 2900 TR; Downers Grove, Ill.).
# (§4) To calculate the specific binding (pmol/mL) of the human ERα or ERβ protein at each concentration point, the following equation was used: […]
# (§5) When a lower radioligand concentration is used, the corresponding IC50 value will also be relatively lower, but when the radioligand concentration increases, the corresponding IC50 value will also increase. […] Since the RBA value is a parameter that is independent of the radioligand concentration used, we thus have placed more emphasis on the RBA values instead of the absolute IC50 values in interpreting the physiological meanings of the data from in vitro receptor competition assays.
# [2] = biological target: T2, recombinant human ERβ (Homo sapiens, UniProt Q92731); experiment: ERβ binding assay: competition of [3H]E2 binding by competing estrogens; conditions: for RBAβ (%) (relative binding affinity for ERβ, of E2): calculated against E2 = 100; for binding affinity for ERβ (in words): concentrations up to 1000 nM
# T2 construct: purchased PanVera Corporation (Madison, Wis.); host or cells: baculovirus-mediated expression system
# T2 sequence (Q92731 whole entry): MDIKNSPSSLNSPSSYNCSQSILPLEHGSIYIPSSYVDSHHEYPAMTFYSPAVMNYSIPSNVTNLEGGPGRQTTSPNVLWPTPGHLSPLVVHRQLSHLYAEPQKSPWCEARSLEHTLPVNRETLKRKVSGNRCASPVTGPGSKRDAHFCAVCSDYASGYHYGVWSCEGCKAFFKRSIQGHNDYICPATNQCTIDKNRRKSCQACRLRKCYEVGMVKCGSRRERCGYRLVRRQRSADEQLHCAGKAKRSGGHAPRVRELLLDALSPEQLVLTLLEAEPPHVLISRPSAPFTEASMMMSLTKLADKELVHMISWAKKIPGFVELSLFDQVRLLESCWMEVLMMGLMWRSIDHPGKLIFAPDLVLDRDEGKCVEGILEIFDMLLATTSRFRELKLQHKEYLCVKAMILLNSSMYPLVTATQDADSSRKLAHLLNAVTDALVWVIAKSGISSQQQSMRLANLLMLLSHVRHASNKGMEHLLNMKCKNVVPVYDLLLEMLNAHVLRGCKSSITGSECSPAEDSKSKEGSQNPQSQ
# Text: as §1, §2, §3, §4, §5
# [3] = [3H]E2 10 nM, competitor up to 1000 nM
# [4] = [3H]E2 10 nM, competitor up to 1000 nM, read-out: ERβ IC50
structure (smiles),measurement,setting,value
"Cc1cc(O)cc2c1[C@H]1CC[C@]3(C)[C@@H](O)CC[C@H]3[C@@H]1CC2 [1-Methyl-E2, 1-Methylestradiol]","RBAα % (relative binding affinity for ERα, of E2)",[1],14%
same,RBAα/RBAβ,[1],1.8
same,RBAα/RBAβ,[1]; listed as 1-methylestradiol,about 1.8
same,IC50,[1],79.4 nM
same,decrease of binding affinity for ERα compared to E2,[1]; relative to E2,approximately 90%
same,"RBAβ (%) (relative binding affinity for ERβ, of E2)",[2],8%
same,IC50,[2]; read-out: ERβ IC50,112 nM
same,decrease of binding affinity for ERβ compared to E2,[2]; relative to E2,approximately 90%
"COc1cc2c(cc1OC)[C@H]1CC[C@]3(C)C(=O)CC[C@H]3[C@@H]1CC2 [2,3-diMeO-E1, Estrone 2,3-dimethyl ether]",IC50,[1],> 1000 nM
same,IC50,[2]; read-out: ERβ IC50,> 1000 nM
"COc1cc2c(cc1OC)C1CCC3(C)C(O)CCC3C1CC2 (stereo not drawn) [2,3-diMeO-E2, 17β-Estradiol 2,3-dimethyl ether]",IC50,[1],> 1000 nM
same,IC50,[2]; read-out: ERβ IC50,> 1000 nM
"CC12CCC3c4cc(Br)c(O)cc4CCC3C1CCC2O (stereo not shown) [2-Br-E2, 2-Bromoestradiol]","RBAα % (relative binding affinity for ERα, of E2)",[1],4%
same,RBAα/RBAβ,[1],10
same,RBAα/RBAβ,[1]; listed as 2-bromoestradiol,about 10
same,IC50,[1],281 nM
same,"RBAβ (%) (relative binding affinity for ERβ, of E2)",[2],< 0.5% and 0.4%
same,IC50,[2]; read-out: ERβ IC50,2510 nM
"CCOc1cc2c(cc1O)CCC1C2CCC2(C)C(O)CCC12 (stereo not shown) [2-Ethoxy-E2, 2-Ethoxyestradiol]",binding affinity for ERα (in words),[1],weak binding affinity
same,IC50,[1],> 1000 nM
same,binding affinity for ERβ (in words),[2],weak binding affinity
same,IC50,[2]; read-out: ERβ IC50,> 1000 nM
"COc1cc2c(cc1O)CC[C@@H]1[C@@H]2CC[C@]2(C)C(=O)CC[C@@H]12 [2-MeO-E1, 2-Methoxyestrone]",IC50,[1]; [3],> 1000 nM
same,binding affinity for ERα (in words),[1],did not have appreciable binding affinity
same,RBAα/RBAβ determined by extrapolating the curves,[1],about 1
same,IC50,[2]; [4],> 1000 nM
same,binding affinity for ERβ (in words),[2],did not have appreciable binding affinity
"COc1cc2c(cc1O)CC[C@@H]1[C@@H]2CC[C@]2(C)[C@@H](O)CC[C@@H]12 [2-MeO-E2, 2-Methoxyestradiol]",IC50,[1]; [3],501 nM
same,"RBAα % (relative binding affinity for ERα, of E2)",[1],2%
same,RBAα/RBAβ,[1],2
same,RBAα/RBAβ,[1]; listed as 2-methoxyestradiol,about 2
same,IC50,[2]; [4],631 nM
same,"RBAβ (%) (relative binding affinity for ERβ, of E2)",[2],1%
"C[C@]12CC[C@@H]3c4cc(N)c(O)cc4CC[C@H]3[C@@H]1CCC2=O [2-NH2-E1, 2-Aminoestrone]","RBAα % (relative binding affinity for ERα, of E2)",[1],3%
same,binding affinity for ERα (in words),[1],very weak binding affinities
same,RBAα/RBAβ,[1],7.5
same,RBAα/RBAβ,[1]; listed as 2-aminoestrone,about 7.5
same,IC50,[1],398 nM
same,"RBAβ (%) (relative binding affinity for ERβ, of E2)",[2],0.4%
same,binding affinity for ERβ (in words),[2],very weak binding affinities
same,IC50,[2]; read-out: ERβ IC50,2510 nM
"C[C@]12CC[C@@H]3c4cc([N+](=O)[O-])c(O)cc4CC[C@H]3[C@@H]1CCC2=O [2-NO2-E1, 2-Nitroestrone]","RBAα % (relative binding affinity for ERα, of E2)",[1],1%
same,binding affinity for ERα (in words),[1],very weak binding affinities
same,RBAα/RBAβ determined by extrapolating the curves,[1],about 3
same,RBAα/RBAβ determined by extrapolating the curves,[1]; listed as 2-nitorestrone,~3
same,IC50,[1],1580 nM
same,binding affinity for ERβ (in words),[2],very weak binding affinities
same,IC50,[2]; read-out: ERβ IC50,> 1000 nM
"COc1cc2c(cc1O)[C@H]1CC[C@]3(C)C(=O)CC[C@H]3[C@@H]1CC2 [2-OH-3-MeO-E1, 2-Hydroxyestrone 3-methyl ether]",binding affinity for ERα (in words),[1],did not have appreciable binding affinity
same,IC50,[1],> 1000 nM
same,binding affinity for ERβ (in words),[2],did not have appreciable binding affinity
same,IC50,[2]; read-out: ERβ IC50,> 1000 nM
"CC(=O)OC1C[C@]2(C)[C@@H](O)CC[C@H]2[C@@H]2CCc3cc(O)ccc3[C@@H]12 (stereo partly drawn) [11-Acetate-E2, 17β-Estradiol 11-acetate]",IC50,[2]; [4],19.9 nM
"C[C@]12CC[C@@H]3c4ccc(O)cc4CC[C@H]3[C@@H]1C[C@@H](O)[C@@H]2O [16α-OH-E2 (E3), 16α-Hydroxyestradiol (Estriol), reference compound]",preference of binding affinity for ERβ over ERα,[2]; listed as E3,more than five-fold
same,IC50,[2]; read-out: ERβ IC50,25.1 nM
"C[C@]12CC[C@@H]3c4ccc(O)cc4CC[C@H]3[C@@H]1C[C@@H](O)[C@H]2O [16α-OH-E2-17α, 16α-Hydroxyestradiol-17α (16,17-Epiestriol)]",IC50,[2]; read-out: ERβ IC50,11.2 nM
same,"binding affinity for ERβ, times higher than E2-17α",[2]; relative to E2-17α,16 times
"C[C@]12CC[C@@H]3c4ccc(O)cc4CC[C@H]3[C@@H]1C[C@H](O)[C@H]2O [16β-OH-E2-17α, 16β-Hydroxyestradiol-17α (16,17-Epiestriol)]",preference of binding affinity for ERβ over ERα,[2],18 fold
same,IC50,[2]; read-out: ERβ IC50,70.8 nM
"C#CC1(O)CCC2C3CCc4cc(O)ccc4C3CCC21C (stereo not drawn) [17α-EE2, 17α-Ethynylestradiol, reference compound]",binding affinity for ERβ (in words),[2],only about half of that of E2
C[C@]12CCc3c(ccc4cc(O)ccc34)[C@@H]1CC[C@@H]2O [17β-Dihydroequilenin],IC50,[2]; [4],8.9 nM
"O=C(CC(=O)c1ccccc1)c1ccccc1 [DBM, Dibenzoylmethane, reference compound]",IC50,[2],> 1000 nM
same,binding affinity for ERβ (in words),[2],weak overall binding affinity
"C[C@]12CC[C@@H]3c4ccc(OS(=O)(=O)O)cc4CC[C@H]3[C@@H]1CCC2=O [E1-3-sulfate, Estrone 3-sulfate]",binding affinity for ERβ (in words),[2],basically devoid of appreciable binding affinity
same,binding affinity for ERβ (in words),[2]; listed as estrone-3-sulfate,virtually no estrogen receptor binding affinity
same,IC50,[2]; read-out: ERβ IC50,> 1000 nM
"C[C@]12CC[C@@H]3c4ccc(O)cc4C[C@@H](CCCCCCOCc4ccccc4)[C@H]3[C@@H]1CC[C@@H]2O [E2-7α-(CH2)6OC6H5, 7α-(6-Benzyloxyhexanyl)-17β-estradiol]",IC50,[2]; [4],63.1 nM
